Test results published in patent US12629358B2, “Compound used as RET kinase inhibitor and application thereof” (TYK MEDICINES, INC., priority 2019, dated 2026).
Where a chain is given by its changes, count along the chain named. Blank lines part the entries; values can stand above or below the compound they belong to.

Columns and labels:
wild-type RET kinase = wild-type RET kinase (Homo sapiens, UniProt P07949); assay: Enzyme activity test against wild-type RET kinase (33P-ATP filter-binding kinase activity assay); type: biochemical; conditions: ATP Km concentration, 10 concentrations
Sequence of wild-type RET kinase (P07949 29-1114): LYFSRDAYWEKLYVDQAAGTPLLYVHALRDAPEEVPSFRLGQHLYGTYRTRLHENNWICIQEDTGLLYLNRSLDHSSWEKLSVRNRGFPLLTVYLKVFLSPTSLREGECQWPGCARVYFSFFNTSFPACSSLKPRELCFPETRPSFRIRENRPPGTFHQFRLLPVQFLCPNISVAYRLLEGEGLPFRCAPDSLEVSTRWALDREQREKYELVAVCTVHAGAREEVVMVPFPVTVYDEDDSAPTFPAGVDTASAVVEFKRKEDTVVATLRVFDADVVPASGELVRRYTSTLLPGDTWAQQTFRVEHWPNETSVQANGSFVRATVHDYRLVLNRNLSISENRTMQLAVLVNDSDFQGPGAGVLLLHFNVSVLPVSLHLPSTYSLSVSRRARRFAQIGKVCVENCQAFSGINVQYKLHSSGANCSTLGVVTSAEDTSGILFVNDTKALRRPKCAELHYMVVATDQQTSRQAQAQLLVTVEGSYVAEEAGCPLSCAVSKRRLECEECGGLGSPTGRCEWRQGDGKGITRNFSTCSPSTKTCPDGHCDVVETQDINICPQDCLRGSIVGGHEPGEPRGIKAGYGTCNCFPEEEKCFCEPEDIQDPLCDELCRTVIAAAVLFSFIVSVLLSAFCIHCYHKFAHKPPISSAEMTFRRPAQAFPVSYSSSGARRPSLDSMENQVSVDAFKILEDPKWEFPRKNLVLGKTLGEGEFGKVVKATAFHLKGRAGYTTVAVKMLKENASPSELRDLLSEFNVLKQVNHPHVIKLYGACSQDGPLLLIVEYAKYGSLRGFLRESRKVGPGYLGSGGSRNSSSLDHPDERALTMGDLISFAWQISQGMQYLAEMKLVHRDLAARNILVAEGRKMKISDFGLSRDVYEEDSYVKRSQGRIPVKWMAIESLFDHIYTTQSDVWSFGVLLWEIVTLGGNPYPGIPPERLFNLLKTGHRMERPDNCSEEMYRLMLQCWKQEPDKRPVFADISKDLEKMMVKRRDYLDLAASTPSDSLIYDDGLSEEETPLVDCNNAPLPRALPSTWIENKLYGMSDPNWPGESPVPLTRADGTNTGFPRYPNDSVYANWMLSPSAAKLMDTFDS
Method: A biological activity test experiment was conducted below for some compounds of the above Examples and Comparative Example.
[…]. The biological activity screening of the compounds will be determined repeatedly at 10 concentrations.
Each sample was prepared into a solution with a concentration of 10 mM.
The test compound was dissolved in 100% dimethyl sulfoxide to a specific concentration. Integra Viaflo Assist was used to assist DMSO for (continuous) dilution.
Kinase was added to the newly prepared basic reaction buffer
Adding any desired cofactors to the substrate solution.
Adding wild-type RET kinase into the substrate solution and gently mixing;
Acoustic technology (Echo 550; Nanoliter range) was used to feed the compounds in 100% of dimethyl sulfoxide into the kinase reaction mixture and incubated at room temperature for 20 minutes.
33P-ATP (specific activity 10 Ci/l) was added to the reaction mixture to start the reaction.
Incubated at room temperature for 2 hours
Radioactivity was detected by filter-binding method.
Kinase activity data was expressed as the percentage of remaining kinase activity in the test sample compared to the vehicle (dimethyl sulfoxide) reaction. Prism (GRAPHPAD software) was used to obtain IC50 value and curve-fitting.

[1] = Metabolism test of drugs: plasma pharmacokinetics after intravenous and intragastric administration; type: in vivo; conditions: male, rat, SD rats, PO, 10 mg/kg, plasma
Method: Four small molecule compounds of BLU-667, compound C2, compound C4 and compound C8 were administered to SD rats by intravenous and intragastric administration respectively. Blood samples were collected at different time points to determine the concentration of drugs in plasma after administration and calculate the related pharmacokinetics parameters.
The vehicle of BLU-667, C2, C4 and C8 was 10% NMP+49% PEG400+1% Tween80+40% Water. The specific preparation method was as follows: proper amount of tested samples was weighed, dissolved in 10% NMP+49% PEG400+1% Tween80+40% Water, mixed well by vortex for later use.
LC-MS/MS was used by the analysis department of the experimental organization to detect and analyze the prepared solution of sample for test.
Healthy male SD rats were used in this research. Animal weight: 150-200 g. All animals fasted before administration, and resumed feeding 4 hours after administration.
Time points for blood collection were: • Intravenous administration (groups 1, 3 and 5): 0.0833, 0.25, 0.5, 1, 2, 4, 8, 12 and 24 hours after administration. (±2 min at time point ≤2 hr, ±15 min at other points.) • Oral administration: (groups 2, 4, 6 and 7): 0.25, 0.5, 1, 2, 4, 8, 12 and 24 hours after administration. (±2 m at time point […] at other points.)
About 0.1 mL of blood was collected from each animal through jugular vein every time, and EDTA or heparin sodium was used as anticoagulant. Blood samples were collected and placed on ice, and plasma was separated by centrifugation (centrifugation conditions: 5000 r/min, 6 min, 4° C.).
LC-MS/MS was used by the analysis department of the experimental organization to analyze the plasma samples of rats.
According to the data of blood drug concentration of the drug, the pharmacokinetic parameters AUC0→t, AUC0→∞, MRT0→∞, CMax, TMax, Vss, F, CL and T1/2 as well as their mean and standard deviation of the samples for test were calculated respectively by pharmacokinetic calculation software WinNonlin non-compartment model.
The main pharmacokinetic parameters of BLU-667, compound C2, compound C4 and compound C8 in plasma after intravenous and single oral administration of BLU-667, compound C2, compound C4 and compound C8 in SD rats were shown in Table 3

Ba/F3-KIF5B-RET cells = target: T1, Ba/F3-KIF5B-RET cells (Homo sapiens, UniProt P07949); assay: Cell anti-proliferation experiment (CellTiter-Glo), Ba/F3-KIF5B-RET; type: cell-based; conditions: cell viability, 72 h
T1 construct: host or cells: Ba/F3 (BaF3 from RIKEN BRC CELL BANK); the other entry of the earlier key: KIF5B (P33176, Kinesin-1 heavy chain)
T1 sequence (P07949 713-1063 limits assumed): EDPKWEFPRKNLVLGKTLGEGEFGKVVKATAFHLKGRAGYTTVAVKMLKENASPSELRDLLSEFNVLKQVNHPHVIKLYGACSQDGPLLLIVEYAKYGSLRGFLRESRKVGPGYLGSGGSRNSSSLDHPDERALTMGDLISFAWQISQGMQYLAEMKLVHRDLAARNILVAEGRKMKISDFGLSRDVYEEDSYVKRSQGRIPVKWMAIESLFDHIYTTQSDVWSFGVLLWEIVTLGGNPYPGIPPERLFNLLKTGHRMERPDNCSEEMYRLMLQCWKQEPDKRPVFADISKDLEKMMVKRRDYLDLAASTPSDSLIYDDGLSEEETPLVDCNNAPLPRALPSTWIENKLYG
Method: (§1) Ba/F3-KIF5B-RET, Ba/F3-KIF5B-RET-V804L and Ba/F3-KIF5B-RET-V804M cells were constructed by PreceDo Pharmaceuticals Co., Ltd.
(§2) Ba/F3-KIF5B-RET, Ba/F3-KIF5B-RET-V804L and Ba/F3-KIF5B-RET-V804M medium: RPMI-1640+10% FBS+1% P/S.
(§3) A 1000× solution of the compound was prepared with DMSO, the compound was diluted to 20 times final concentration with a growth medium, and […] was added.
(§4) The suspended cells were rotated downward, resuscitated in the growth medium, and then counted with a cell counter. The cell suspension was diluted to the desired concentration in the growth medium. 95p L cell suspension was fed to a 96-well plate. 5 μL of 20× compound was added to the […], and the final DMSO concentration per well was 0.1%; incubated at 37° C. with 5% CO2 for 72 h
(§5) The plate was equilibrated to room temperature before measurement, 50 μl of CellTiter-Glo® reagent was added into each well, mixed on a shaker for 2 minutes, incubated at room temperature for 10 minutes, and recorded with Paradigm.
(§6) Cell viability was analyzed using Graphpad 7.0 software according to the formula Cell viability (CV %)=(RLU compound−RLU blank)/(RLU control−RLU blank)*100%, and the corresponding IC50 data were calculated as shown in Table 2

[2] = target: T2, Ba/F3-KIF5B-RET-V804L cells (Homo sapiens, UniProt P07949, V804L); assay: Cell anti-proliferation experiment (CellTiter-Glo), Ba/F3-KIF5B-RET-V804L; type: cell-based; conditions: cell viability, 72 h
T2 construct: host or cells: Ba/F3 (BaF3 from RIKEN BRC CELL BANK); the other entry of the earlier key: KIF5B (P33176, Kinesin-1 heavy chain)
T2 sequence (P07949 713-1063 V804L limits assumed): T1 sequence (P07949 713-1063 limits assumed) with V92L
Method: as §1, §2, §3, §4, §5, §6

[3] = target: T3, Ba/F3-KIF5B-RET-V804M cells (Homo sapiens, UniProt P07949, V804M); assay: Cell anti-proliferation experiment (CellTiter-Glo), Ba/F3-KIF5B-RET-V804M; type: cell-based; conditions: cell viability, 72 h
T3 construct: host or cells: Ba/F3 (BaF3 from RIKEN BRC CELL BANK); the other entry of the earlier key: KIF5B (P33176, Kinesin-1 heavy chain)
T3 sequence (P07949 713-1063 V804M limits assumed): T1 sequence (P07949 713-1063 limits assumed) with V92M
Method: as §1, §2, §3, §4, §5, §6

Wild-RET IC50 (wild-type RET kinase): no activity
SMILES: COC1(C(=O)N[C@@H](C)c2ccc(-n3cc(F)cn3)nc2)CC=C(c2ccc(C#N)c(Nc3cc(C)[nH]n3)n2)CC1 (stereo partly shown) [Comparative Example C32, reference compound]

IC50 (wild-type RET kinase): 0.146 µM
SMILES: CO[C@]1(C(=O)N[C@@H](C)c2ccc(-n3cc(F)cn3)nc2)CC[C@@H](c2nc(Nc3cc(C)[nH]n3)ccc2C#N)CC1 [Compound C1]

IC50 (wild-type RET kinase): 0.241 µM
SMILES: CO[C@]1(C(=O)N[C@@H](C)c2ccc(-n3cc(F)cn3)nc2)CC[C@@H](c2nc(Nc3cc(C)[nH]n3)cc3cccnc32)CC1 [Compound C3]

IC50 (wild-type RET kinase): 0.1 µM
SMILES: CO[C@]1(C(=O)N[C@@H](C)c2ccc(-n3cc(F)cn3)nc2)CC[C@@H](c2nc(Nc3cc(C)[nH]n3)cc3c2N(C)CCC3)CC1 [Compound C5]

IC50 (wild-type RET kinase): 0.00353 µM
SMILES: CO[C@]1(C(=O)N[C@@H](C)c2ccc(-n3cc(F)cn3)nc2)CC[C@H](c2nc(Nc3cc(C)[nH]n3)cc3c2N(C)CCC3)CC1 [Compound C6]

IC50 (wild-type RET kinase): 0.00534 µM
SMILES: COC1(C(=O)N[C@@H](C)c2ccc(-n3cc(F)cn3)nc2)CC=C(c2nc(Nc3cc(C)[nH]n3)ccc2C#N)CC1 (stereo partly shown) [Compound C7]

IC50 (wild-type RET kinase): 0.00153 µM
AUC(0-inf) [1]: 2.83 µg·h/mL
AUC(0-t) [1]: 2.8 µg·h/mL
Cmax [1]: 0.824 µg/mL
Tmax [1]: 2 h
half-life [1]: 1.95 h
MRT ([1]; read-out: MRTINF_ obs): 2.85 h
SMILES: COC1(C(=O)N[C@@H](C)c2ccc(-n3cc(F)cn3)nc2)CC=C(c2nc(Nc3cc(C)[nH]n3)cc3cccnc23)CC1 (stereo partly shown) [Compound C8]

IC50 (wild-type RET kinase): 0.00338 µM
SMILES: CO[C@]1(C(=O)N[C@@H](C)c2ccc(-n3cc(F)cn3)nc2)CC[C@H](c2nc(Nc3cc(C)[nH]n3)c(F)cc2C#N)CC1 [Compound C9]

IC50 (wild-type RET kinase): 0.262 µM
SMILES: CO[C@]1(C(=O)N[C@@H](C)c2ccc(-n3cc(F)cn3)nc2)CC[C@@H](c2nc(Nc3cc(C)[nH]n3)c(F)cc2C#N)CC1 [Compound C10]

IC50 (wild-type RET kinase): 0.0174 µM
SMILES: COC1(C(=O)N[C@@H](C)c2ccc(-n3cc(F)cn3)nc2)CC=C(c2nc(Nc3cc(C)[nH]n3)c(F)cc2C#N)CC1 (stereo partly shown) [Compound C11]

IC50 (wild-type RET kinase): 0.0161 µM
SMILES: COC1(C(=O)N[C@@H](C)c2ccc(-n3cc(F)cn3)nc2)CC=C(c2nc(Nc3cc(C)[nH]n3)cnc2C#N)CC1 (stereo partly shown) [Compound C12]

IC50 (wild-type RET kinase): 0.00208 µM
SMILES: CO[C@]1(C(=O)N[C@@H](C)c2ccc(-n3cc(F)cn3)nc2)CC[C@H](c2nc(Nc3cc(C)[nH]n3)cnc2C#N)CC1 [Compound C13]

SMILES: CO[C@]1(C(=O)N[C@@H](C)c2ccc(-n3cc(F)cn3)nc2)CC[C@H](c2nc(Nc3cc(C)[nH]n3)cc3nccnc32)CC1 [Compound C14]
IC50 (Ba/F3-KIF5B-RET cells): 0.0541 µM
IC50 [2]: 0.0468 µM
IC50 [3]: 0.109 µM

SMILES: CO[C@]1(C(=O)N[C@@H](C)c2ccc(-n3cc(F)cn3)nc2)CC[C@H](c2nc(Nc3cc(C)[nH]n3)c3ccccc3n2)CC1 [Compound C15]
IC50 (Ba/F3-KIF5B-RET cells): 0.0046 µM
IC50 [2]: 0.0028 µM
IC50 [3]: 0.0074 µM

IC50 (wild-type RET kinase): 0.18 µM
SMILES: CO[C@]1(C(=O)N[C@@H](C)c2ccc(-n3cc(F)cn3)nc2)CC[C@@H](c2nc(Nc3cc(C)[nH]n3)cc(C)c2C#N)CC1 [Compound C16]

IC50 (wild-type RET kinase): 0.00126 µM
SMILES: CO[C@]1(C(=O)N[C@@H](C)c2ccc(-n3cc(F)cn3)nc2)CC[C@H](c2nc(Nc3cc(C)[nH]n3)cc(C)c2C#N)CC1 [Compound C17]

IC50 (wild-type RET kinase): 0.00152 µM
SMILES: CO[C@]1(C(=O)N[C@@H](C)c2ccc(-n3cc(F)cn3)nc2)CC[C@H](c2nc(Nc3cc(C)[nH]n3)cc3c2C(=O)NCC3)CC1 [Compound C18]

IC50 (wild-type RET kinase): 0.0647 µM
SMILES: CO[C@]1(C(=O)N[C@@H](C)c2ccc(-n3cc(F)cn3)nc2)CC[C@@H](c2nc(Nc3cc(C)[nH]n3)cc3c2C(=O)NCC3)CC1 [Compound C19]

SMILES: CO[C@]1(C(=O)N[C@@H](C)c2ccc(-n3cnc(Cl)n3)nc2)CC[C@H](c2nc(Nc3cc(C)[nH]n3)cc3cccnc32)CC1 [Compound C24]
IC50 (Ba/F3-KIF5B-RET cells): 0.0951 µM
IC50 [2]: 0.084 µM
IC50 [3]: 0.182 µM

SMILES: CO[C@]1(C(=O)N[C@@H](C)c2cnc(-n3cc(F)cn3)cn2)CC[C@H](c2nc(Nc3cc(C)[nH]n3)cc3cccnc32)CC1 [Compound C26]
IC50 (Ba/F3-KIF5B-RET cells): 0.0052 µM
IC50 [2]: 0.0029 µM
IC50 [3]: 0.0079 µM

SMILES: CO[C@]1(C(=O)N[C@@H](C)c2ccc(-n3cc(F)cn3)nn2)CC[C@H](c2nc(Nc3cc(C)[nH]n3)cc3cccnc32)CC1 [Compound C27]
IC50 (Ba/F3-KIF5B-RET cells): 0.0294 µM
IC50 [2]: 0.023 µM
IC50 [3]: 0.0519 µM

SMILES: CO[C@]1(C(=O)N[C@@H](C)c2ccc(-n3cnc(C)n3)nc2)CC[C@H](c2nc(Nc3cc(C)[nH]n3)cc3cccnc32)CC1 [Compound C29]
IC50 (Ba/F3-KIF5B-RET cells): 0.145 µM
IC50 [2]: 0.118 µM
IC50 [3]: 0.252 µM
